The results in this text go back to US10981866B2 (THE UNITED STATES OF AMERICA, AS REPRESENTED BY THE …, priority 2017, dated 2021).

The target of this experiment is bovine serum albumin (Bos taurus, UniProt P02769). The experiment can be described thus: binding kinetics of EB-TATE and bovine serum albumin. To be noted: unlabeled EB-TATE.

Structures are written as SMILES.

bovine serum albumin, sequence (P02769 25-607): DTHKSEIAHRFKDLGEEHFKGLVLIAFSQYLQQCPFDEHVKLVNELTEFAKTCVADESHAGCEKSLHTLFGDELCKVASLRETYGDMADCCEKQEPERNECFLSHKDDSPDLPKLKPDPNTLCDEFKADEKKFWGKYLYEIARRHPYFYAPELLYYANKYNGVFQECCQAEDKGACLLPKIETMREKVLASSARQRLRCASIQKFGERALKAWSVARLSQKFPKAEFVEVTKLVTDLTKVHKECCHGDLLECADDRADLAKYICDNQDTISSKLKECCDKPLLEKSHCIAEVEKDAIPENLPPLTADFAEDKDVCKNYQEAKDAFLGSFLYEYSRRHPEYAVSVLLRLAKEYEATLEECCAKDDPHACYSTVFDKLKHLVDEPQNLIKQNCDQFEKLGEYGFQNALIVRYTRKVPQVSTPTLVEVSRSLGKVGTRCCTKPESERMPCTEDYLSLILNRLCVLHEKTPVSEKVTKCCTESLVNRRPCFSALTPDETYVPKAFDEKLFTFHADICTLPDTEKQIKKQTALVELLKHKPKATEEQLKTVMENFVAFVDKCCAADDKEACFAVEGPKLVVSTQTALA

Turning to `Cc1cc(-c2ccc(NC(=O)[C@@H](CCCCNC(=O)CCN3C(=O)CC(SCCC(=O)N[C@H](Cc4ccccc4)C(=O)N[C@H]4CSSCC(C(=O)NC(C(=O)O)[C@@H](C)O)NC(=O)[C@H]([C@@H](C)O)NC(=O)[C@H](CCCCN)NC(=O)[C@@H](Cc5c[nH]c6ccccc56)NC(=O)[C@H](Cc5ccccc5)NC4=O)C3=O)NC(=O)CN3CCN(CC(=O)O)CCN(CC(=O)O)CCN(CC(=O)O)CC3)c(C)c2)ccc1N=Nc1ccc2c(S(=O)(=O)O)cc(S(=O)(=O)O)c(N)c2c1O` (some centres unmarked) [EB-TATE], the “Kd, affinity to bovine serum albumin” value is reported as “μM Kd affinity”; the “Kon and Koff, bovine serum albumin” value is “high Kon and low Koff”.
